Assay results as given in US7435724B2, “Degradation-resistant mononucleoside phosphate compounds” (Inspire Pharmaceutical, Inc., priority 2002, dated 2008).

Test system: whole blood platelet aggregation
Assay: Platelet aggregation assay, whole blood (ADP-induced, impedance mode)
Assay type: cell-based, human (healthy volunteers)
Details: Homo sapiens, read-out: PLATELET DATA IC50 Whole Blood, inhibition of aggregation by maximally effective ADP, whole blood diluted 1:1 with saline
Procedure: Blood was collected from healthy volunteers into syringes containing ⅙final blood volume of anti-coagulant ACD (65 mM citric acid, 85 mM sodium citrate, 110 mM dextrose) for washed platelet (WP) preparation or into a syringe containing a final concentration of 10 units/mL heparin or 300 μM PPACK for whole blood (WB) assays. The blood collected for whole blood assays was maintained at room temperature and immediately tested as described below. The blood collected for WP) was centrifuged at 180 g for 15 minutes and the supernatant (platelet rich plasma) was removed. […] Platelet aggregation was measured using the optical mode of a ChronoLog aggregometer (Havertown, Pa.). […] A maximally effective concentration of ADP (typically a concentration that produces between 90 and 100 percent of the maximal response) was added to the sample and aggregation was monitored for 8 minutes. […]
The potency of agonists and inhibitors of platelet aggregation was calculated from both, the rate of aggregation and the maximal extent of aggregation obtained for each determination by fitting the data to a four-parameter logistic equation using the GraphPad software package (GraphPad Corp. San Diego, Calif.).

Work on `CCNC(=O)Nc1ncnc2c1ncn2[C@@H]1O[C@H](COP(=O)(O)OC)C2O[C@H](/C=C/c3ccccc3)O[C@@H]21` (stereo partly drawn) [Compound 217, 2′,3′-(trans)-O-methylenestyryl-5′-(methylphosphate)-N^6-ethylaminocarbonyl-adenosine] yielded an IC50 of 2500 nM.
